The results in this text go back to PMC7377239, “Cardiovascular Effects of Polychlorinated Biphenyls and Their Major Metabolites” (Environmental Health Perspectives, 2020).

Where two headings read alike, the source gives them in different places.

Assay [1] relates to iCell endothelial cells (human iPSC-derived ECs). The experiment in a line: Tube formation (tubulogenesis) assay in iCell endothelial cells, 18 h. The format is cell-based. As to conditions: Homo sapiens, Endothelial cell, endothelial cells (endo), 18 hr. The essentials:
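iCell ECs (passages 1–5) seeded 7,500 cells/well on reduced-growth-factor Geltrex in starvation medium, exposed overnight at 37°C to compounds in triplicate concentration–response (0.5% DMSO vehicle). Calcein AM staining, 4× imaging, angiogenesis image analysis; readouts normalized to vehicle, four-parameter logistic fit, POD at 1 SD of vehicle; 100 μM assigned NOAEL if no response.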

The test system of the next assay is HUVECs. Nature of the assay: Tube formation (tubulogenesis) assay in HUVECs, 18 h. The class given is cell-based, human. To be noted: Homo sapiens, HUVEC, 18 h, HUVEC. The method, boiled down:
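HUVECs (passage 1–5) seeded on reduced-growth-factor basement membrane and exposed to compounds overnight at 37°C, 5% CO2, in 2× maintenance medium with 12.5 ng/mL VEGF; 0.5% DMSO vehicle. Calcein AM-stained tube networks imaged and analysed; vehicle-normalized readouts fit to four-parameter logistic, POD set at one SD of vehicle means.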

The mark [2] stands for this setting: tube formation mtl, read-out: POD endo.mtl.18hr.
The mark [3] stands for this setting: tube formation tlps, read-out: POD endo.tlps.18hr.
Setting [4] is: tube formation tta, read-out: POD endo.tta.18hr.
Setting [5] is: tube formation ttl, read-out: POD endo.ttl.18hr.
[6] abbreviates: tube formation mtl, read-out: POD huvec.mtl.18hr.
Where [7] appears, read: tube formation tlps, read-out: POD huvec.tlps.18hr.
Setting [8] is: tube formation tta, read-out: POD huvec.tta.18hr.
Setting [9] is: tube formation ttl, read-out: POD huvec.ttl.18hr.

Regarding `Clc1ccc(-c2ccccc2)cc1` [PCB 3, 4-chlorobiphenyl], the minimal effective concentration turned out to be 100 µM in assay [1] (setting [2]); 100 µM in assay [1] (setting [3]); 100 µM in assay [1] (setting [4]); 100 µM in assay [1] (setting [5]); 25.3 µM in the assay on HUVECs (setting [6]); 100 µM with HUVECs (setting [7]). The minimal effective concentration amounted to 0.67 µM with HUVECs (setting [8]) and 0.7 µM in the assay with HUVECs (setting [9]).

Regarding `Clc1cccc(-c2cccc(Cl)c2)c1` [PCB 11, 3,3′-Dichlorobiphenyl], the minimal effective concentration in assay [1] (setting [2]) turned out to be 100 µM; in assay [1] (setting [3]), 100 µM; in assay [1] (setting [4]) it was 100 µM; in assay [1] (setting [5]) it was 100 µM; in the assay on HUVECs (setting [6]), 100 µM; in the assay on HUVECs (setting [7]), 41.8 µM. Further, the minimal effective concentration in the assay with HUVECs (setting [8]) and in the assay with HUVECs (setting [9]) was 100 µM each time.

For `Clc1ccc(Cl)c(-c2cc(Cl)ccc2Cl)c1` [PCB 52, 2,2′,5,5′-tetrachlorobiphenyl], the minimal effective concentration in assay [1] (setting [2]) worked out at 79.8 µM; in assay [1] (setting [3]), 100 µM; in assay [1] (setting [4]), 100 µM; in assay [1] (setting [5]), 100 µM; with HUVECs (setting [6]), 100 µM; with HUVECs (setting [7]), 100 µM. Further, the minimal effective concentration with HUVECs (setting [8]) and with HUVECs (setting [9]) was 100 µM in each case.

With `Clc1ccc(Cl)c(-c2c(Cl)ccc(Cl)c2Cl)c1` [PCB 95, 2,2′,3,5′,6-pentachlorobiphenyl], the minimal effective concentration in assay [1] (setting [2]) was found to be 48.6 µM; in assay [1] (setting [3]), 53.9 µM; in assay [1] (setting [4]), 48.7 µM; in assay [1] (setting [5]) it was 55.7 µM; in the assay with HUVECs (setting [6]), 8.29 µM; in the assay on HUVECs (setting [7]), 100 µM. The minimal effective concentration in the assay with HUVECs (setting [8]) and in the assay with HUVECs (setting [9]) was 100 µM in each case.

With `Clc1ccc(-c2cc(Cl)c(Cl)c(Cl)c2)cc1Cl` [PCB 126, 3,3′,4,4′,5-pentachlorobiphenyl], the minimal effective concentration came to 28.1 µM in assay [1] (setting [2]); 4.68 µM in assay [1] (setting [3]); 25.7 µM in assay [1] (setting [4]); 38.9 µM in assay [1] (setting [5]); 100 µM with HUVECs (setting [6]); 100 µM with HUVECs (setting [7]). Moreover, the minimal effective concentration in the assay on HUVECs (setting [8]) and in the assay with HUVECs (setting [9]) was 100 µM each time.

For the molecule `Clc1cc(Cl)c(-c2cc(Cl)c(Cl)cc2Cl)cc1Cl` [PCB 153, 2,2′,4,4′,5,5′-hexachlorobiphenyl], the minimal effective concentration amounted to 0.007 µM in assay [1] (setting [2]); 1.93 µM in assay [1] (setting [3]); 3.83 µM in assay [1] (setting [4]); 0.58 µM in assay [1] (setting [5]); 19.8 µM in the assay on HUVECs (setting [6]); 61.8 µM in the assay with HUVECs (setting [7]). In addition, the minimal effective concentration with HUVECs (setting [8]) worked out at 8.87 µM; in the assay with HUVECs (setting [9]) it was 0.13 µM.
